Source: patent publication US20260053767A1, “Hepatoprotective Compositions And Methods” (Jemyll, Ltd., priority 2022, published 2026)
Entries after “also recorded” stand apart in the source; their conditions may differ.

Legend:
SIRT enzymes = test: Global SIRT activity in liver cells; assay type: cell-based; settings: AML-12 liver cells
Text: (§1) To that end, the inventors used endothelial cells (EOMA cells) and liver cells (AML-12 cells) in vitro and quantified various markers in response to exposure of the cells to environmental challenge in the presence and absence of DDA at low concentrations. Unless indicated otherwise, the DDA concentration in the in vitro experiments was 5 mcg per microliter. More specifically, the inventors measured p-H2AX protein levels as a marker for DNA damage, PGC-1α protein levels as a marker for mitochondrial biogenesis, NAMPT enzyme levels as a marker for potential for NAD+ production, and total antioxidant capacity as a marker of cellular health. In addition, the inventors also measured global SIRT activity as a gauge of activity for all SIRT enzymes, and in particular SIRT1 enzyme levels as markers for autophagy and various beneficial processes associated with a caloric restricted diet, and SIRT3 levels as markers for mitochondrial function and longevity.
In still further experiments, the liver cells were also tested for global SIRT activity and exemplary results are shown in FIG. 6.

Wistar rats = test: Study 2 (reversal): liver histology (H&E, Oil Red O, Sirius Red); assay type: in vivo; settings: Study 2: 9 weeks diet, then 4 weeks treatment
Procedure: Study design: All animal procedures were approved by the Catholic University of Rome Institutional Animal Care Committee. The design of the studies is summarized in FIG. 18, Panels A and B. • Study 1: Twenty adult Wistar rats, aged 8-10 weeks, were included in the study. The rats were housed in individual cages at 22° C. with 12-h light cycles and had ad libitum access to food and water. Rats were fed a high-fat high-cholesterol diet (44% Carbohydrate, 14% Protein, 42% fat+0.2% Cholesterol) (Mucedola, Milan, IT) for four weeks in the presence or absence of 1% Dodecanedioic acid, sodium salt (w/vol) dissolved in the water (FIG. 18, Panel A). Body weight and food/water intake were monitored weekly. • Study 2: Twenty adult Wistar rats, aged 8-10 weeks, were included in the study. The rats were housed in individual cages at 22° C. with 12-h light cycles and had ad libitum access to food and water. Rats were fed a high-fat high-cholesterol diet (44% Carbohydrate, 14% Protein, 42% fat+0.2% Cholesterol) (Mucedola, Milan, IT). After nine weeks of diet, rats were randomly assigned to one of the following groups: Four weeks of high-fat high-cholesterol diet or four weeks of high-fat high-cholesterol diet and 1% Dodecanedioic acid, sodium salt (w/v) dissolved in the water FIG. 18, Panel B). Body weight and food/water intake were monitored weekly.
Histology: The day of the sacrifice fresh portions of liver were cut, embedded in cryo-embedding media (OCT) and snap frozen in liquid nitrogen. Biopsies were cut using a cryostat (5 μm) and slides stored a −20° C. until analyses.
Hematoxylin and Eosin staining was performed to assess hepatic steatosis. Slides were fixed 10 minutes with 95% ethanol, stained with hematoxylin for 1 minute, washed with distilled water, stained with eosin for 30 seconds and cleared in two changes of pure ethanol and two changes of xylene.
Oil Red O was performed to assess intracellular lipid accumulation. Slides were fixed overnight with 4% formalin, stained with Oil Red O solution for 1 hour. Counterstain was performed with Hematoxylin solution.
Sirius Red was used to identify hepatic fibrosis. Slides were fixed 10 minutes with 4% formalin, stained in Direct red 80 for 1 hour, washed in acidified water and dehydrate in 3 changes of absolute ethanol. After brief clearing in xylene, the slides were mounted in a resinous medium. Images were taken with an optical microscope (Leica DM2000, Wetzlar, DE). […]
Panels A and B. • Study 1: Twenty adult Wistar rats, aged 8-10 weeks, were included in the study. […] Body weight and food/water intake were monitored weekly. • Study 2: Twenty adult Wistar rats, aged 8-10 weeks, were included in the study. […] Body weight and food/water intake were monitored weekly. […]

PGC-1α = PGC-1α in endothelial cells; assay type: cell-based; settings: EOMA endothelial cells
Text: as §1
In yet a further series of experiments, the inventors also sought to confirm whether or not DDDA would have a modulatory effect in endothelial cells using the same markers and experimental conditions as noted above.
On the other hand, where endothelial cells were exposed to DDDA, there was a significant difference in NAMPT enzyme levels as is exemplarily depicted in FIG. 15.

[1] = tested on: human primary hepatocytes; test: Nile red staining of lipid droplets; assay type: cell-based; settings: C12 1% with palmitic acid 0.4 mM, vs palmitic acid alone, listed as C12
Procedure: Nile Red: Cells were cultured for 24 hours in DMEM with 10% FBS. Prior stimulation, cells were incubated in serum free DMEM overnight. […] After the stimulation, cells were stained with Nile Red (100 ng/ml) for 45 minutes. Stained cells were used for immunofluorescence to quantify the deposition of lipid droplets. Nuclear staining was performed with DAPI and images of lipid droplets were taken using confocal microscope Nikon A1 RHD25 and NIS-Elements imaging software was used to analyze images.
C12 decrease de novo lipogenesis and an increase in fatty acid oxidation in vitro and in vivo: To test the hypothesis that C12 could affect de novo lipogenesis and fatty acid beta-oxidation, human primary hepatocytes were stimulated with palmitic acids (0.4 mM) in the presence or absence of C12 1% (v/w). […] Similar results were also observed in our in vivo experiments. […] Data from in vivo study 1 and 2 were pooled together.

O=C(O)CCCCCCCCCCC(=O)O [DDDA, dodecanedioic acid] was tested, and the “global SIRT activity” value (SIRT enzymes; 6 hours, in the presence of hydrogen peroxide, p<0.001) was “increased global SIRT activity in a statistically significant manner”, the “global SIRT activity” value (SIRT enzymes; 24 hours, no hydrogen peroxide, same trend, p=0.065) was “did not reach a level of significance” and the “diet-induced NASH (histology, reversal)” value (Wistar rats) was “reverses diet-induced insulin NASH”. The “fibrosis (Picro Sirius Red)” value (Wistar rats) was “decreasing”, the “hepatic steatosis (Hematoxylin and Eosin)” value (Wistar rats) was “decreasing” and the “neutral lipids (Oil Red O)” value (Wistar rats) was “decreasing”. The PGC-1α (PGC-1α) was “did not show a statistically significant difference” and the “deposition of lipid droplets (Nile red)” value [1] was “decreased deposition of lipid droplets; also recorded: reduces lipid droplets accumulation”.
